What is called IC50 is the concentration that gives 50% inhibition. One may read the EC50 as the midpoint of the concentration-response curve.

Like-named read-outs stand apart in the source and are kept apart here.

Results on twelve compounds are retold here after PMC5537602, “TRPA1 channel mediates organophosphate-induced delayed neuropathy” (Cell Discovery, 2017).

One data set has as its target T1, cTRPA1 (Gallus gallus, UniProt W8VTH6).
T1 sequence (W8VTH6 1-1126): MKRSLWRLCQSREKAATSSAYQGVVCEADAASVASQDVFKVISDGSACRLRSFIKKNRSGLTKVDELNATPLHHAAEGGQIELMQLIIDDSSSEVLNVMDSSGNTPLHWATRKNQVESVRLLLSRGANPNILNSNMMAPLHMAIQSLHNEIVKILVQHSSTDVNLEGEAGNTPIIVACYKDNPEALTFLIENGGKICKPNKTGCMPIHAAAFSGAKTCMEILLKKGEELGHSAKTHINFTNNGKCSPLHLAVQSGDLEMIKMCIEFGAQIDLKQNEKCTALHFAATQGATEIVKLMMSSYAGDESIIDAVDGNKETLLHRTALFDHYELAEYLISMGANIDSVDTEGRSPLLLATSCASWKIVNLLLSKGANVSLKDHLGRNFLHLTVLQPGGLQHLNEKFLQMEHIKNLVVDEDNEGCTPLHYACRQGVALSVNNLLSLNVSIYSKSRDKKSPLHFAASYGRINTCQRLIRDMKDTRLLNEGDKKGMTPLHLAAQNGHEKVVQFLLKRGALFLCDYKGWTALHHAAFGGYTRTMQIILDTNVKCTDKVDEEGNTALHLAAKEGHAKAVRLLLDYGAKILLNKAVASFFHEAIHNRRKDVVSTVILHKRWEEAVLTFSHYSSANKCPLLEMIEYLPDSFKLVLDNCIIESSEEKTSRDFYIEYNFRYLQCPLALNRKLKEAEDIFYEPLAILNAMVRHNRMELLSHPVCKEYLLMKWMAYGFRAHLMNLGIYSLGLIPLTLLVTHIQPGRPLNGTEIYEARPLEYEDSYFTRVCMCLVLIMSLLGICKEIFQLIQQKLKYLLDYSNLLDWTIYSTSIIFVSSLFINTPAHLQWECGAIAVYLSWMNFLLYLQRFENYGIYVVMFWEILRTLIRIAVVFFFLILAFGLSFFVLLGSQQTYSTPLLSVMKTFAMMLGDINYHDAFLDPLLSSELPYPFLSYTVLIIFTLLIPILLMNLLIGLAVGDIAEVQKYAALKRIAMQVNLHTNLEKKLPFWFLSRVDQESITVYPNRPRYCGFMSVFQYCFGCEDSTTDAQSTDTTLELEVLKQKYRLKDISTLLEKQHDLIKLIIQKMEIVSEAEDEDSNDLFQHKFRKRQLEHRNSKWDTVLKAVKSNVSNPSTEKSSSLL
Nature of the data set: Whole-cell patch-clamp, HEK293 cells expressing cTRPA1. It is filed as cell-based, chicken. The method, then: (§1) All cell culture reagents were purchased from Life Technologies. HEK293 cells were transfected transiently with the corresponding plasmids using lipofectamine 2000 (Life Technologies). Transfection efficiency was monitored by co-transfecting EGFP plasmid which codes for the enhanced green fluorescent protein. Electrophysiological recordings were performed between 24 and 36 h after transfection.
Whole-cell patch-clamp recordings in DRG neurons (small diameter, […]) and HEK293 cells were operated at room temperature (23–25 °C) using EPC-10 amplifier and Patch Master Software (HEKA). […] Currents were sampled at 10 kHz and low-pass filtered at 2.9 kHz. […] The calcium-free external solution contained (in mM) 140 NaCl, 5 KCl, 0.5 EGTA, 1 MgCl2, 10 Glucose and 10 HEPES, with pH adjusted to 7.4 by NaOH and osmolarity 300–310 mOsm. The 0.5 mM EGTA was replaced by 2 mM CaCl2 for the recordings in DRG neurons. TRPA1 currents development was monitored with repetitive injections of 300 ms duration voltage ramps from −100 to +100 mV every 2 s and the holding potential was set to 0 mV for 50 ms, existing in both sides of the voltage ramp. To record inward currents in DRG neurons, we conducted voltage clamp at holding membrane potential of −70 mV. Solutions were switched using a gravity-fed continuous focal perfusion system.
(Patch clamp records ionic current or voltage across a cell membrane.)

The subject of a further data set is hens. The format is in vivo, hen. The method, then: The chosen adult Hyline Brown hens were raised individually in stainless steel wire cages. After 7 days of acclimatization, the chosen hens were randomly divided into groups (n=6–10 for each group). The hens in the delayed neuropathy groups were administered a single dose of 750 mg kg^−1 TOCP and repeated doses of 75 mg kg^−1 malathion by gavage. TOCP and malathion were dissolved in corn oil and administered at 0.65 ml kg^−1. In the HC030031 treatment groups, 100 mg kg^−1 HC030031 was administered by gavage daily beginning at day 0 or day 11. All hens were examined daily for signs of delayed neurotoxicity. A five-point graded scale was used to describe the clinical symptoms of delayed neuropathy, with 0 indicating normal ambulation; (1) suspected ataxia (lack of strength in the legs and tottering); (2) mild ataxia (slow, clumsy and unsteady gait); (3) gross ataxia (waddling gait and staggering and falling despite being active); (4) mild paralysis (typical paralytic posture and lame appearance); and (5) complete paralysis (unable to maintain posture, stand up or move at all), as described previously.

For the next data set, the target named is mTRPA1 (Mus musculus, UniProt Q8BLA8). Nature of the data set: FDSS Ca2+-influx assay, HEK293 cells stably expressing mTRPA1. The format is cell-based. On the set-up: expressed in transfected cells. Here is the method:
Ca^2+-influx assays were carried out using HEK293 cells stably expressing mTRPA1 channels with an FDSS screening system (Hamamatsu, Japan). Before the start of the assay, HEK293-mTRPA1 cells were plated onto poly-D-Lysine (40 μg ml^−1) coated 96-well black clear bottom plate with the cell density of 300 000 cells per milliliter in DMEM supplemented with 10% (vol/vol) fetal bovine serum, 200 μg ml^−1 Hygromycin B, 15 μg ml^−1 Blasticidin S HCL and 0.3 μg ml^−1 doxycycline, which could induce the expression of mTRPA1. The 96-well plate was then put in sterile incubator overnight. The following day, Ca^2+ influx dye Fluo-4/AM stock was diluted to 2 μM with bath solution, and added (50 μl per well) in place of the culture medium. The plate was then incubated to load the Fluo-4/AM into cells for 60 min at 37 °C in dark environment. During the incubation, we prepared the compound plate (96-well) and the margin of plate was set as blank control due to the fringing effect. At the end of dye loading period, the remnant dye was removed using bath solution to wash the 96-well cell plate twice and then add 80 μl bath solution per well.

Another data set has as its target T2, hTRPA1 (Homo sapiens, UniProt O75762).
T2 construct: expressed in transfected cells; host or cells: HEK293, transient, EGFP plasmid co-transfected
Nature of the data set: cell-based. It is filed as cell-based. The settings on record: for activation of hTRPA1 whole-cell currents: 30 μM, calcium-free external solution; for activation of hTRPA1 whole-cell currents by NTE inhibitors: 100 μM. Here is the method: as §1, with “Human embryonic kidney 293 (HEK293) cells were cultured in DMEM containing 10% (vol/vol) heat-inactivated fetal bovine serum, 100 units ml^−1 penicillin–streptomycin and 2 mM L-glutamine at 37 °C in a humidity-controlled sterile incubator with 5% CO2. All” for “All”
(§2) Whole-cell patch-clamp recordings in DRG neurons (small diameter, […]) and HEK293 cells were operated at room temperature (23–25 °C) using EPC-10 amplifier and Patch Master Software (HEKA). […] Currents were sampled at 10 kHz and low-pass filtered at 2.9 kHz. The internal solution was as follows (in mM): 140 CsCl, 10 HEPES, 5 EGTA, 0.1 CaCl2 and 1 MgCl2, with pH adjusted to 7.2 by CsOH and osmolarity 295–300 mOsm. The calcium-free external solution contained (in mM) 140 NaCl, 5 KCl, 0.5 EGTA, 1 MgCl2, 10 Glucose and 10 HEPES, with pH adjusted to 7.4 by NaOH and osmolarity 300–310 mOsm. The 0.5 mM EGTA was replaced by 2 mM CaCl2 for the recordings in DRG neurons. TRPA1 currents development was monitored with repetitive injections of 300 ms duration voltage ramps from −100 to +100 mV every 2 s and the holding potential was set to 0 mV for 50 ms, existing in both sides of the voltage ramp. To record inward currents in DRG neurons, we conducted voltage clamp at holding membrane potential of −70 mV. Solutions were switched using a gravity-fed continuous focal perfusion system.

Data set [1] has as its system mouse DRG neurons. Description: Whole-cell patch-clamp of small-diameter DRG neurons. It is filed as cell-based. The method, then: (§3) DRG neurons were isolated from young C57 BL/6 mice (4–5 weeks). The sections of thoracic and lumbar DRG neurons were rapidly isolated in calcium and magnesium-free PBS with low temperature conditions (ice-bath environment). The isolated tissues were cut into pieces with scissor and incubated for 30 min with 0.1% collagenase and 0.025% trypsin which were diluted by DMEM-F12 at 37 °C. After digestion, neurons were gently dissociated using Pasteur pipettes and then plated onto poly-D-lysine pre-coated glass cover slips. DRG neurons were cultured for 24 h before use.
as §2

Data set [2] deals with mouse DRG neurons. Nature of the data set: Single-cell calcium imaging (Fura-2/AM) of isolated DRG neurons. It is filed as cell-based. The method, then:
as §3
Calcium influx signals were monitored using the ratio metric fluorescent indicator dye Fura-2/AM at room temperature (23–25 °C). Cells were incubated with 2 μM Fura-2/AM, which was generated by diluting the stock solution with normal external solution, for 30 min at 37 °C. […] The maximum excitation wave length of Fura-2/AM was changed to 340 nm from 380 nm when combined with calcium ions. Fura-2/AM was excited at 340 and 380 nm with a rapid switching monochromator obtained from TILL Photonics, and the mean fluorescence intensity ratios (F340/F380) reflected real-time changes in the concentration of intracellular free calcium ions. The external solution used in the DRG whole-cell patch-clamp recordings was also used for calcium imaging. Solutions were switched using a gravity-fed continuous focal perfusion system.

The subject of data set [3] is mice. Description: Behavioral testing of mice (paw-licking time after intraplantar injection). The settings on record: WT mice; AITC 10 μl 5%, malathion 10 μl 30%, intraplantar. It is filed as in vivo, mouse. Here is the method:
The chosen mice were allowed to acclimate to the experimental environment for at least 2 h before testing. Intraplantar injection of 5% AITC and 30% malathion (10 μl) was achieved using separate injectors. Spontaneous pain evoked by the compounds was assessed by measuring the time (s) the mice spent on licking. For the HC030031 groups, 200 mg kg^−1 HC030031 was intragastrically administered, and then the test was conducted after 1 h. The testing phase was divided into two parts: 0–10 min and 11–60 min.

Data set [4] has as its system mice. Description: Transmission electron microscopy of local nerve fibers in mice. It is filed as in vivo, mouse. The settings on record: WT mice; plantar injection, 5% AITC or 30% malathion. Here is the method: For mice, subcutaneous tissue from the site of exposure was removed and fixed by immediate immersion in ice-cold 2.5% glutaraldehyde. Subsequently, the samples were post-fixed in 1% OsO4 for 1 h, dehydrated with an ethanol series and embedded in epon resin. Sixty-nanometer ultra-thin sections were double stained with lead citrate and uranyl acetate and examined using an electron microscopy.

Sequence of mTRPA1 (Q8BLA8 whole entry): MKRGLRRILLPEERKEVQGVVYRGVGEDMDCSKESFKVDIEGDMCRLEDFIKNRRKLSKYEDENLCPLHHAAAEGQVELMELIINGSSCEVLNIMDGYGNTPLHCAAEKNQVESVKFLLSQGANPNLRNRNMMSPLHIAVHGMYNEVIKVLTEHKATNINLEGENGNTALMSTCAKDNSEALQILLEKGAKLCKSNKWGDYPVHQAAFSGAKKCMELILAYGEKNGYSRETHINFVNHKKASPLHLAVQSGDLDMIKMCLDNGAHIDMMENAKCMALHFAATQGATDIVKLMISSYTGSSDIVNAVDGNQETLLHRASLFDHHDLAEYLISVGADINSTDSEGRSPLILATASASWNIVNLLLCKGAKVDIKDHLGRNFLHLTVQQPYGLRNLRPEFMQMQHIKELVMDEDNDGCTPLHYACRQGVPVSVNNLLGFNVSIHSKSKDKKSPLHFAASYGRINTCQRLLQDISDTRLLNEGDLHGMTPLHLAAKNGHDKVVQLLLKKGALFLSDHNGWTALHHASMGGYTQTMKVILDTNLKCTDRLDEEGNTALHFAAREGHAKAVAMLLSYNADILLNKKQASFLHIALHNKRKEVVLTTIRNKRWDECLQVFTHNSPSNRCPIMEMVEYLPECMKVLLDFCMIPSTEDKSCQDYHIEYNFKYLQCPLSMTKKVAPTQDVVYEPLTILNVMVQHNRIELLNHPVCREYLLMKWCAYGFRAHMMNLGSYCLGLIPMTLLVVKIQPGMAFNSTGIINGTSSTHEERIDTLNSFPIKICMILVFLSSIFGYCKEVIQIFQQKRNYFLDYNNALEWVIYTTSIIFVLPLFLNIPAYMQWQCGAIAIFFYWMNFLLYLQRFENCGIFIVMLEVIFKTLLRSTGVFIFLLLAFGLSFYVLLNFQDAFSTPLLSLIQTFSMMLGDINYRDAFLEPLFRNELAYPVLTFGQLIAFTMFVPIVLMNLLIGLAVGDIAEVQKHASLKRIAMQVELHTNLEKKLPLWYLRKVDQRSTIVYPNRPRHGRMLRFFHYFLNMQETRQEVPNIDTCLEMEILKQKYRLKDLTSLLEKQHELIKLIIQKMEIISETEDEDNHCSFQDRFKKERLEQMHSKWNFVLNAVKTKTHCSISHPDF
T2 sequence (O75762 whole entry): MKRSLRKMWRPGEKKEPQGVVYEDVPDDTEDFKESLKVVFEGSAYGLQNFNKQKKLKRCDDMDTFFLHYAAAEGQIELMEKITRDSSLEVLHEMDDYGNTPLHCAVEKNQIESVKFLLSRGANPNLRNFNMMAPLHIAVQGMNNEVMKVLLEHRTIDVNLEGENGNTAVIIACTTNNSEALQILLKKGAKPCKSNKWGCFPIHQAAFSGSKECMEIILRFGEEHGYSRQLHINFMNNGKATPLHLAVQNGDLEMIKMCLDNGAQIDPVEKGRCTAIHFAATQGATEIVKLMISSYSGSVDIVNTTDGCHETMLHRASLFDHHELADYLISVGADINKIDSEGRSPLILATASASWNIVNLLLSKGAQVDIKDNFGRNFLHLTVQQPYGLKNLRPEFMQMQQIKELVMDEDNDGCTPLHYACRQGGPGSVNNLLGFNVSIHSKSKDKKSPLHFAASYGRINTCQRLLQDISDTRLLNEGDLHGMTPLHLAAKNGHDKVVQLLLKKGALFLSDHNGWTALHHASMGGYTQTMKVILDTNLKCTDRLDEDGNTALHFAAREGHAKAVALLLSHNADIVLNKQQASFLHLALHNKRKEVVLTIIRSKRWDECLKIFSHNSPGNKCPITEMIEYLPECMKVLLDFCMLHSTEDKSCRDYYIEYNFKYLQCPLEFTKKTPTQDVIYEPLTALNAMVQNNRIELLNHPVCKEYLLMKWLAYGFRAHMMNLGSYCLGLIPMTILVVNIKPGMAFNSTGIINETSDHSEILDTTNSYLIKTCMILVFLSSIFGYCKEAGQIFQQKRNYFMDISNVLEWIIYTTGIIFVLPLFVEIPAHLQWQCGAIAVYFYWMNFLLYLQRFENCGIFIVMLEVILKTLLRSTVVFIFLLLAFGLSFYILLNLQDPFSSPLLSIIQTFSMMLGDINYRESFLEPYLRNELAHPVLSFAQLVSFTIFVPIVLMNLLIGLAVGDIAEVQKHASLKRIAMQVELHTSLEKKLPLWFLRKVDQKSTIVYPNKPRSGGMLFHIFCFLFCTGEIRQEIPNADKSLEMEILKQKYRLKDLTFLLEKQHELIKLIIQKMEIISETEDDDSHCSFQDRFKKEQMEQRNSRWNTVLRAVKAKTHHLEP

`CNCC[C@H](Oc1cccc2ccccc12)c1cccs1` [duloxetine]: the half-maximal inhibitory concentration (IC50) on cTRPA1 (manual whole-cell patch-clamp, TOCP-induced currents, read-out: IC50 on cTRPA1 channels) was 4.69 ± 1.4 µM. Moreover, in the data set with hens (in vivo), the “effect on TOCP-induced symptoms (OPIDN scores)” value was “significantly alleviated”.

As for `CCOP(=S)(OCC)Oc1nc(Cl)c(Cl)cc1Cl` [chlorpyrifos], at mTRPA1 (HEK293 cells, change in [Ca2+]i, read-out: EC50, activation of mTRPA1), the concentration giving a half-maximal response (EC50) was in the range of 10 to 40 µM. At hTRPA1, the “activation of hTRPA1 whole-cell currents” value is recorded as “activated”.

In turn, `CCOP(=S)(OCC)O/N=C(\C#N)c1ccccc1` [phoxim] had an EC50 on mTRPA1 of 10 to 40 µM. The “activation of hTRPA1 whole-cell currents” value at hTRPA1 was “activated”.

With `O=S(=O)(Cl)Cc1ccccc1` [Phenylmethanesulfonyl chloride], the “activation of hTRPA1 whole-cell currents by NTE inhibitors” value (“activation … by NTE inhibitors” for short) on hTRPA1 is given as “activated”.

As to `CCOC(=O)OCC` [Ethyl carbonate], at hTRPA1, the “activation … by NTE inhibitors” value is recorded as “activated”.

As for `COP(=S)(OC)Oc1ccc(SC)c(C)c1` [fenthion], the concentration for a half-maximal effect (EC50) at mTRPA1 lay in the range of 10 to 40 µM. Moreover, the “activation of hTRPA1 whole-cell currents” value at hTRPA1 is “activated”.

The compound `CN1CCC(=C2c3ccccc3CC(=O)c3sccc32)CC1` [ketotifen] came in with an IC50 against cTRPA1 of 5.79 ± 1.18 µM. For the same compound, in the data set with hens (hens, 100 mg kg−1 daily by gavage from day 0), the “effect on TOCP-induced symptoms (OPIDN scores)” value is listed as “significantly alleviated”.

In the case of `COP(=O)(OC)OC(Br)C(Cl)(Cl)Br` (stereo not shown) [naled], the EC50 on mTRPA1 was 10 to 40 µM. Also, the “activation of hTRPA1 whole-cell currents” value on hTRPA1 was “activated”.

For the compound `C=CCN=C=S` [AITC, allyl isothiocyanate], the “action potential firing in WT small-diameter neurons” value with mouse DRG neurons [1] (100 μM) was “bursts of action potentials”. Also, the “currents in neurons from Trpa1−/− mice” value in the data set with mouse DRG neurons [1] (Trpa1−/− neurons, 17/17) was “failed to induce currents”. Also, in the data set with mouse DRG neurons [2] (Trpa1−/− neurons), the “[Ca2+]i response of DRG neurons from Trpa1−/− mice” value is “thoroughly unresponsive”. Further, the “neurons displaying a robust increase in [Ca2+]i” value in the data set with mouse DRG neurons [2] (wild-type small-diameter neurons, sequential application of AITC and malathion, 197/451) is listed as ~ 44%. Further, the “nocifensive behavior (paw-licking) after plantar injection” value in the data set on mice [3] is recorded as “nociception-like response”. Further, the “activation of hTRPA1 whole-cell currents” value on hTRPA1 is “activated”. In the data set on mice [4], the “nerve fiber damage around the injection site (TEM)” value is listed as “damage of the myelin sheath”.

On to `CCSC(=O)N(CC(C)C)CC(C)C` [Butylate], for which the “activation … by NTE inhibitors” value at hTRPA1 is listed as “activated”.

For `COc1nn(CSP(=S)(OC)OC)c(=O)s1` [methidathion], on mTRPA1, the concentration giving a half-maximal response (EC50) fell in the range of 10 to 40 µM. For the same compound, at hTRPA1, the “activation of hTRPA1 whole-cell currents” value is recorded as “activated”.

Consider `O=S(=O)(Cl)c1ccccc1` [Benzenesulfonyl chloride], for which the “activation … by NTE inhibitors” value at hTRPA1 is given as “activated”.
